These are literature values, as cited in US20140287011A1, “ARTHROPOD PEST CONTROL COMPOSITION” (SUMITOMO CHEMICAL COMPANY, LIMITED, priority 2011, published 2014).

For the data set the following is noted: water at 20° C.

In the case of `CCOc1cc(C(C)(C)C)ccc1C1COC(c2c(F)cccc2F)=N1` (stereo not shown) [the present oxazole compound, 2-(2,6-difluorophenyl)-4-[4-(1,1-dimethylethyl)-2-ethoxyphenyl]-4,5-dihydrooxazole], the solubility is given as 75.4 pg per 1 liter.
